From patent US20210109080A1, “Cell-Based Biosensor for Early Alzheimer's Disease Detection” (University of South Carolina, priority 2019, published 2021)
Where a SMILES comes first, the peptide text is derived from it. The star is where a group is joined. Cbz = O=C(OCc1ccccc1)*

System: HBMVEC monolayers
Assay: FITC-BSA transendothelial transfer / permeability coefficient (Pe) across HBMVEC monolayers
Format: cell-based, human
Settings: 3 μM MG-132 pre-treatment 30 min, then 5 μM MIX 24 h
Method: HBMVEC monolayers were incubated alone (white circles), with 0.3-10 μM Aß aggregates (grey circles), or with TNF-α (positive control, black circles). (a) Following 24-h treatment, transfer of FITC-BSA from the apical to basolateral chamber was monitored via florescence. Error bars represent SEM, n=3. Increased permeability is evidenced by a faster transfer rate, or steeper slope. Following treatment with 5 μM Aß aggregates, the transfer rate is increased by approximately 10%. (b) TEER was monitored following addition of treatments (indicated by arrow). […] In the absence of Aß aggregates, TEER maintains a plateau, decreasing by less than 8% over 7 days.
HBMVEC monolayers were incubated alone (CONT, white circles), with Aß monomer (MON, diamonds), with Aß aggregate mixture containing small aggregates (MIX, circles), or with Aß fibrils (FIB, triangles). (a) Using FITC-BSA transfer rates, Pe was determined after 24-h treatment with Aß concentrations of 5 μM (white bars) and 10 μM (black bars). […] (b) TEER was monitored following addition of treatments at a concentration of 5 μM (indicated by arrow).
Pe is determined from the transfer rate of FITC-BSA and reported relative to untreated monolayers. […]
(a) Confluent HBMVEC monolayers were incubated for 30 min with 100 pM, 1 nM, 10 nM, or 1 μM isolated small soluble Aß aggregates (SOL) (RH=43-54 nm). […] Using FITC-BSA transfer rates, Pe was determined.

SMILES: CC(C)C[C@@H](C=O)NC(=O)[C@H](CC(C)C)NC(=O)[C@H](CC(C)C)NC(=O)OCc1ccccc1 [MG-132] (Cbz-Leu-Leu-Leu-aldehyde)
- effect on Aß-induced increase in Pe: Abrogation of the Aß-induced increase in Pe
